Data as given in article PMC6387623 (Proteins, 2018).

Target: RGS4 (single-cysteine RGS4 C95) (Rattus norvegicus, UniProt P49799, C71A/C132A/C148A/C183A/C197A/C204A)
Experiment: Flow cytometry protein interaction assay
Type: binding

Chain of RGS4 (single-cysteine RGS4 C95) (P49799 52-205 C71A/C132A/C148A/C183A/C197A/C204A): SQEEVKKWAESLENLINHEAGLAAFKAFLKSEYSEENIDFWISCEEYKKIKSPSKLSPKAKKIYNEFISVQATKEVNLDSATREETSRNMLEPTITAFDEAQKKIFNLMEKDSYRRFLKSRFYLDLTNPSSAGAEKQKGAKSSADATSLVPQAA

## Cc1ccc(-n2sc(=O)n(Cc3ccc(F)cc3)c2=O)cc1 [compound 1, CCG-50014]
  IC50: ~4.5 µM
